Patent US20100168054A1, “Functionalized Beta 1,6 Glucosamine Disaccharides and Process for Their Preparation” (OM PHARMA, priority 2006, published 2010)

Tests used:
rat mast cells = test: Histamine secretion (compound 48/80-stimulated); format: cell-based; settings: compound 48/80 0.1 μg/ml, 2 min, 37° C.; read-out: IC50, mean of the reference (5 different tests)
Text: Using an in vitro rat model of mast cell degranulation (proposed by the CRO CEREP, catalog number 2006: 771-c), we aimed to investigate whether the synthetic molecules OM-174-DP (compound 1b) OM-174-MP-PD (19), OM-174-MP-EP (33), OM-174-MP-CM (35c) and OM-174-MP-PR (17) would inhibit histamine secretion by compound 48/80-stimulated mastocytes. The protocol used is briefly summarized below:
The results are expressed as a percent of control specific activity ((measured specific activity/control specific activity)×100) obtained in the presence of the test compounds. The IC50 values (concentration causing a half-maximal inhibition of control specific activity) were determined by non-linear regression analysis of the inhibition curves generated with mean replicate values using Hill equation curve fitting (Y=D+[(A−D)/(1+(C/C50)nH)], where Y=specific activity, D=minimum specific activity, A=maximum specific activity, C=compound concentration, C50=IC50, and nH=slope factor). This analysis was performed using a software developed at Cerep (Hill software) and validated by comparison with data generated by the commercial software SigmaPlot® 4.0 for Windows® (© 1997 by SPSS Inc.).
In each experiment, the reference compound was tested concurrently with the test compounds in order to assess the assay suitability. It was tested at several concentrations (for IC50 value determination), and the data were compared with historical values determined at CEREP. The assay was rendered valid if the suitability criteria were met, in accordance with the corresponding Standard Operating Procedure.

[1] = tested on: human peripheral blood mononuclear cells (PBMC); test: TNF-α secretion by human PBMC (ELISA); format: cell-based; settings: for TNF-α: 24 h; for TNF-α induction (in words): 0.2, 2, 20 μg/ml
Procedure: (§1) Peripheral blood from healthy donors (Centre de transfusion, Hôpital Universitaire, Geneva) was centrifuged to get the buffy coat. The buffy coat was mixed with Hanks' balanced saline solution (HBSS, Sigma, Buchs, Switzerland), layered over Ficoll Paque Plus (Amersham Pharmacia) to 1.077 g/mL and centrifuged (2800 rpm, 20° C., 25 min). Cells harvested from the interphase were washed twice in HBSS at 800 rpm for 15 min at room temperature and the pelleted cells were resuspended in HBSS. The cell counts were performed using a Neubauer cell. All cell cultures were performed in RPMI-1640 medium supplemented with penicillin (100 U/mL), streptomycin (100 μg/mL), L-glutamine (2 mmol/L) and 10% fetal calf serum (FCS), all obtained from Sigma. For in vitro stimulation, the cells were cultured at a concentration of 1×10^6 viable cells/well.
(§2) PBMC were incubated at 37° C. and under 5% CO2 atmosphere with the controls (see below) and with the products of the invention at 1, 5, and 20 μg/mL for IL-6, and at 0.2, 2, and 20 μg/mL for TNF-α secretion. Medium: RPMI alone.
(§3) The surpernatants of the cultures were harvested after 24 h and the concentration of IL-6 and TNF-α were measured by an enzyme-linked immunosorbent assay (ELISA) (Human IL-6 and TNF-α ELISA Set, BD OptEIA, San Diego, USA), according to the manufacturer instructions. The detection limits were 10 and 8 pg/mL respectively.

[2] = tested on: human peripheral blood mononuclear cells (PBMC); test: IL-6 secretion by human PBMC (ELISA); format: cell-based; settings: for IL6: 24 h
Procedure: as §1, §2, §3
PBMC are incubated at 37° C. and under 5% CO2 atmosphere with the products of the invention.
The supernatants of the cultures are harvested after 24 h and the concentration of IL-6 was measured by an enzyme-linked immunosorbent assay (ELISA) (Human IL-6 ELISA Set, BD OptEIA, San Diego, USA), according to the manufacturer instructions. The detection limit was 10 pg/mL.

[3] = tested on: THP1-Blue cells (express naturally both TLR2 and TLR4); test: THP1-Blue NF-κB/AP-1-inducible SEAP reporter; format: cell-based, human; settings: 48 h
Procedure: A first series of experiment was performed on THP-1 cells, which express naturally both TLR2 and TLR4. THP-1 cells are human peripheral blood monocytic cells. Monocytes play a key role in innate immunity and express most TLRs at various levels. As for the primary cells, THP-1 cells activate NF-κB and other transcription factors in response to TLR ligands
To facilitate analysis of TLR response in monocytes, InvivoGen (Toulouse, France) provides THP-1 clones stably transfected with an NF-κB-inducible reporter system, called THP1-Blue™. THP-1 Blue cells were stably transfected with a reporter plasmid expressing a secreted embryonic alkaline phosphatase (SEAP) gene under the control of a promoter inducible by several transcription factors such as NF-κB and AP-1. Upon TLR stimulation, THP1-Blue™ cells activate transcription factors and subsequently the secretion of SEAP which is easily detectable when using QUANTI-Blue\u2122a medium that turns purple/blue in the presence of SEAP.
The cells were stimulated with the controls and compounds of the invention according to manufacturer's instructions. Results: Increased OD at 625 Nm after 48 Hours: The results for the controls (negative=LPS K12CD25 ultrapure, a TLR4 agonist; and PAM3CSK4=positive, a TLR2 agonist) are provided in the table below. The results (expressed as OD of arbitrary units) show the mean values (from duplicate measures) of Optical density read at 625 nm, 48 h after stimulation at 37° C. with the controls (up to 1000 ng/ml): […]

TLR4 = molecular target: T1, TLR4 (Homo sapiens, UniProt O00206+Q9Y6Y9); test: HEK-MD2-TLR4-CD14 IL-8 secretion; format: cell-based; settings: 24 h
T1 construct: expressed in transfected cells; host or cells: HEK293
T1 sequence (O00206 24-839): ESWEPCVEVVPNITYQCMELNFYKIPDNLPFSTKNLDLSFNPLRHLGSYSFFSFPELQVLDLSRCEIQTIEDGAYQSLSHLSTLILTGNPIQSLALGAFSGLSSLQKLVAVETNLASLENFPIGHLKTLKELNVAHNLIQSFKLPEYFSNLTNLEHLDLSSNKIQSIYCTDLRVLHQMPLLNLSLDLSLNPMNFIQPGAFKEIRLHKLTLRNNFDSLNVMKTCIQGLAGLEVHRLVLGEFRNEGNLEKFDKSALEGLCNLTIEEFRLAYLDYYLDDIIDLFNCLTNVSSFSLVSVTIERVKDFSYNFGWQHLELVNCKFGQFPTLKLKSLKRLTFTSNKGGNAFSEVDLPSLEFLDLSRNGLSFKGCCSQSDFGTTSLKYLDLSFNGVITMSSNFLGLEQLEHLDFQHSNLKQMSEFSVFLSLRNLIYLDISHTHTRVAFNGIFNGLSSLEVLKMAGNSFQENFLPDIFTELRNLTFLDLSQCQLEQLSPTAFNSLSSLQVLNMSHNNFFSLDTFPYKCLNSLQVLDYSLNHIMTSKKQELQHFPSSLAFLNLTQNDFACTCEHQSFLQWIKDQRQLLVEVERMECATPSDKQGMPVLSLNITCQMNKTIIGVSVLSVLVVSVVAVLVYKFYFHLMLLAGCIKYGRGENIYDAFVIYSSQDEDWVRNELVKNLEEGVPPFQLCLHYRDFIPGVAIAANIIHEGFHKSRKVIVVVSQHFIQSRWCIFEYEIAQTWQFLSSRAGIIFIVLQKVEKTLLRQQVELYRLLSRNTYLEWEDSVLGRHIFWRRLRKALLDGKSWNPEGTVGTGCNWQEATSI
T1 sequence (Q9Y6Y9 17-160 limits assumed): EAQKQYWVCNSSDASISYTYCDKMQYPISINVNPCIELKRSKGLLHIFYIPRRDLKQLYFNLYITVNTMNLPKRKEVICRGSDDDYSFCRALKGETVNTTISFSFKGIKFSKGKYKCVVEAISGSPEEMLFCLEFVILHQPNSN
Text: (§4) The HEK293 cell line was chosen for its null or low basal expression of the TLR genes. These cells enable efficient monitoring of TLR activity using ELISA analysis such as IL-8 titration or reporter-based systems that monitor TLR-induced NF-κB activation. HEK-TLR2 cells (Invivogen, Toulouse, France) are engineered HEK293 cells stably transfected with multiple genes from the TLR2 pathway that include TLR2 and genes participating in the recognition or involved in the signaling cascade. These cells secrete IL-8 after TLR2 stimulation. The experiments were performed according to manufacturers' instructions. Briefly, 2×10^4 cells/well (200 ul RPMI) are incubated at 37° C. during 3 days (5% CO2). The medium is removed, and 90 ul RPMi+5% FCS is added to the wells Then the agonists and controls are added (10 ul/well). The cells return to the incubator for 24 hours. The supernatants are collected and the IL-8 ELISA is performed according to manufacturer's instructions
HEK-MD2-TLR4-CD14 are highly sensitive to LPS. They were obtained by stable transfection of HEK293 cells with the TLR4, MD2 and CD14 genes and an NF-κB-inducible reporter system. They secrete IL-8. We used the same experimental procedure as for the other HEK cell lines described above.

TLR2 and CD14 = molecular target: T2, TLR2 and CD14 (Homo sapiens, UniProt O60603); test: HEK-TLR2-CD14 IL-8 secretion; format: cell-based; settings: 24 h
T2 construct: expressed in transfected cells; host or cells: HEK (HEK-TLR2-CD14 cell line)
T2 sequence (O60603 21-784): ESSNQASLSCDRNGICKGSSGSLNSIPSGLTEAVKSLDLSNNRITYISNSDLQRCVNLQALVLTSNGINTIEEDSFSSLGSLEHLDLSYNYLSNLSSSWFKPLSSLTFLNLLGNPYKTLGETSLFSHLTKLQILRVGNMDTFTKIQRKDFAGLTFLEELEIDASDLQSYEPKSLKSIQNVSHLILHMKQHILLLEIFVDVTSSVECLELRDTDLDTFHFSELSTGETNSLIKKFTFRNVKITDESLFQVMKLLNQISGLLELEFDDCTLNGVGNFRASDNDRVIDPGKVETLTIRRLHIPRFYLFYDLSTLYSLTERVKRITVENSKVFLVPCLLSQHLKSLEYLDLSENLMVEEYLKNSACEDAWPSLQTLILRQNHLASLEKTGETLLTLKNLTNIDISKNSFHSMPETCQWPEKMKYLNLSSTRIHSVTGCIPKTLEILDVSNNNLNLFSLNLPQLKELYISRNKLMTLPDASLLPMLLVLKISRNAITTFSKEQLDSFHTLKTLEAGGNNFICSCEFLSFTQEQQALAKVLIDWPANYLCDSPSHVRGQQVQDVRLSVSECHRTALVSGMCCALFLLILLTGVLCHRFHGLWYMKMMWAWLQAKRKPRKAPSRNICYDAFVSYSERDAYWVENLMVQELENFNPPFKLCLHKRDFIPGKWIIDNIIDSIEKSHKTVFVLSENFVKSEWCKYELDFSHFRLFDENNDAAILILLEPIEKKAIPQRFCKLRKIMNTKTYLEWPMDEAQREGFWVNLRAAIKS
Text: as §4, with “manufacturer's instructions These preliminary results were confirmed in another cell line expressing concomitantly TLR2 and CD14. The procedure used is similar to the one described just above.” for “manufacturer's instructions”

TLR2 = molecular target: T3, TLR2 (Homo sapiens, UniProt O60603); test: HEK-TLR2 IL-8 secretion; format: cell-based; settings: 24 h
T3 construct: host or cells: HEK293
T3 sequence (O60603 21-784): as above
Text: as §4

Molecule: O=C(O)c1cc(=O)c2c(OCC(O)COc3cccc4oc(C(=O)O)cc(=O)c34)cccc2o1 [SCG, reference compound]
- IC50 (rat mast cells): 8.6 µM

Molecule: CCCCCCCCCCCC(=O)O[C@H](CCCCCCCCCCC)CC(=O)NC1C(OCC2OC(OCCCCCCN)C(NC(=O)C[C@H](O)CCCCCCCCCCC)C(O)C2O)OC(CO)C(OP(=O)(O)O)C1O (stereo partly drawn) [compound 26, 6-Aminohexyl-2-deoxy-6-O-[2-deoxy-4-O-(dihydroxyphosphoryl)-2-[(R)-3-dodecanoyloxytetradecanoylamino]-β-D-glucopyranosyl]-2-[(R)-3-hydroxytetradecanoylamino]-β-D-glucopyranoside]
- TNF-α ([1]; 0.2 μg/ml): 29.3 pg/mL
- TNF-α ([1]; 2 μg/ml): 1264 pg/mL
- TNF-α ([1]; 20 μg/ml): 7016 pg/mL
- TNF-α induction (in words) [1]: induced high levels of TNF-α
- IL6 ([2]; 1 μg/ml): 269.0 pg/mL
- IL6 ([2]; 5 μg/ml): 1923.2 pg/mL
- IL6 ([2]; 20 μg/ml): 8349.3 pg/mL
- IL-6 secretion (in words) ([2]; 1, 5, 20 μg/ml): able to induce IL-6 secretion

Molecule: CCCCCCCCCCCC(=O)O[C@H](CCCCCCCCCCC)CC(=O)NC1C(OCC2OC(OCCO)C(NC(=O)C[C@H](O)CCCCCCCCCCC)C(O)C2O)OC(CO)C(OP(=O)(O)O)C1O (stereo partly drawn) [compound 32, 2-Hydroxyethyl-2-Deoxy-6-O-[2-deoxy-4-O-(dihydroxyphosphoryl)-2-[(R)-3-dodecanoyloxytetradecanoylamino]-β-D-glucopyranosyl]-2-[(R)-3-hydroxytetradecanoylamino]-α-D-glucopyranoside]
- TNF-α ([1]; 0.2 μg/ml): 5.5 pg/mL
- TNF-α ([1]; 2 μg/ml): 7.8 pg/mL
- TNF-α ([1]; 20 μg/ml): 251 pg/mL
- TNF-α induction (in words) [1]: induced high levels of TNF-α

Molecule: PAM3CSK4 [reference compound]
- Optical density read at 625 nm, mean of duplicates ([3]; 1 ng/ml): 0.48 OD
- Optical density read at 625 nm, mean of duplicates ([3]; 4 ng/ml): 0.85 OD
- Optical density read at 625 nm, mean of duplicates ([3]; 12 ng/ml): 1.11 OD
- Optical density read at 625 nm, mean of duplicates ([3]; 37 ng/ml): 1.22 OD
- Optical density read at 625 nm, mean of duplicates ([3]; 111 ng/ml): 1.30 OD
- Optical density read at 625 nm, mean of duplicates ([3]; 333 ng/ml): 1.38 OD
- Optical density read at 625 nm, mean of duplicates ([3]; 1000 ng/ml): 1.35 OD
- IL-8 secretion, mean (TLR4; 1 ng/ml): 1.75 pg/mL
- IL-8 secretion, mean (TLR4; 4 ng/ml): 1.78 pg/mL
- IL-8 secretion, mean (TLR4; 12 ng/ml): 1.76 pg/mL
- IL-8 secretion, mean (TLR4; 37 ng/ml): 1.72 pg/mL
- IL-8 secretion, mean (TLR4; 111 ng/ml): 1.83 pg/mL
- IL-8 secretion, mean (TLR4; 333 ng/ml): 1.87 pg/mL
- IL-8 secretion, mean (TLR4; 1000 ng/ml): 2.17 pg/mL
- IL-8 secretion, mean (TLR2 and CD14; 1 ng/ml): 1.33 pg/mL
- IL-8 secretion, mean (TLR2 and CD14; 4 ng/ml): 2.55 pg/mL
- IL-8 secretion, mean (TLR2 and CD14; 12 ng/ml): 6.78 pg/mL
- IL-8 secretion, mean (TLR2 and CD14; 37 ng/ml): 15.90 pg/mL
- IL-8 secretion, mean (TLR2 and CD14; 111 ng/ml): 22.64 pg/mL
- IL-8 secretion, mean (TLR2 and CD14; 333 ng/ml): 33.30 pg/mL
- IL-8 secretion, mean (TLR2 and CD14; 1000 ng/ml): 39.04 pg/mL
- IL-8 secretion, mean (TLR2; 1 ng/ml): 1.84 pg/mL
- IL-8 secretion, mean (TLR2; 4 ng/ml): 3.89 pg/mL
- IL-8 secretion, mean (TLR2; 12 ng/ml): 9.12 pg/mL
- IL-8 secretion, mean (TLR2; 37 ng/ml): 18.33 pg/mL
- IL-8 secretion, mean (TLR2; 111 ng/ml): 23.93 pg/mL
- IL-8 secretion, mean (TLR2; 333 ng/ml): 28.24 pg/mL
- IL-8 secretion, mean (TLR2; 1000 ng/ml): 32.94 pg/mL

Molecule: CCCCCCCCCCCCCCO[C@@H]1O[C@H](CO[C@@H]2O[C@H](CO)[C@@H](OP(=O)(O)O)[C@H](O)[C@H]2NC(=O)C[C@@H](CCCCCCCCCCC)OC(=O)CCCCCCCCCCC)[C@@H](O)[C@H](O)[C@H]1NC(=O)C[C@H](O)CCCCCCCCCCC [compound 41c, Tetradecyl-2-Deoxy-6-O-[2-deoxy-4-O-(dihydroxyphosphoryl)-2-[(R)-3-dodecanoyloxytetradecanoylamino]-β-D-glucopyranosyl]-2-[(R)-3-hydroxytetradecanoylamino]-β-D-glucopyranoside]
- TNF-α ([1]; 0.2 μg/ml): 570 pg/mL
- TNF-α ([1]; 2 μg/ml): 6036 pg/mL
- TNF-α ([1]; 20 μg/ml): 9769 pg/mL
- TNF-α induction (in words) [1]: induced high levels of TNF-α
